Experiments:
[1] = UV absorption spectra of the compounds, avobenzone and their combinations; format: physicochemical; conditions: for UV absorption: 320 nm and 400 nm, each compound alone
Method: (§1) In both cases, the absorptivity of these two compounds were studied. In addition, photostability of these two compounds were also assessed by taking a second UV absorption spectra after exposing the compounds to UV. Photostability of sun screening compounds are of critical importance as a compound would be completely ineffective if they lose their UV absorptive qualities shortly after being exposed to solar radiation.
Avobenzone is an example for a known chemical UV absorber that can be combined.

[2] = Photostability: UV absorption spectra before and after UV exposure; format: physicochemical; conditions: before vs after UV exposure; 290 nm to 400 nm; FIGS. 2 and 4
Method: as §1
Turning to FIG. 2, this set of spectra show the effects of UV exposure on 3-hydroxy-2-methoxy-cyclo-2-enone, avobenzone, and combinations thereof over a wavelength range of 290 nm and 400 nm. A first spectrum 210 and a second spectrum 212 are for avobenzone before and after UV exposure. A third spectrum 220 and a fourth spectrum 222 are for 3-hydroxy-2-methoxy-cyclo-2-enone before and after UV exposure, respectively. A fifth spectrum 230 and a sixth spectrum 232 correspond to a combination of 3-hydroxy-2-methoxy-cyclo-2-enone and avobenzone at a ratio of 1:2 before and after UV exposure, respectively. Finally, a seventh spectrum 240 and an eighth spectrum 242 correspond to a combination of 3-hydroxy-2-methoxy-cyclo-2-enone and avobenzone at a ratio of 2:1 before and after UV exposure, respectively.
A first spectrum 410 and a second spectrum 412 are for avobenzone before and after UV exposure. […]

Row | UV absorption ([1]; FIG. 1) | absorbance at 320 nm relative to strongest absorbance ([1]; at 320 nm, FIG. 1) | wavelength of strongest (maximum) UV absorption ([1]; compound alone) | change of UV absorption after UV exposure (photostability) [2] | Molecule
1 | relatively low | drops off by approximately half | around 262 nm | dropped overall | 3-Hydroxy-2-methoxy-cyclo-2-enone
2 | relatively low | – | – | dropped overall | COc1ccc(C(=O)CC(=O)c2ccc(C(C)(C)C)cc2)cc1 [avobenzone, reference compound]

— patent US10064797B2, “Topical formulations for UV protection” (TOPGENIX, INC., priority 2014, dated 2018)
